Tests used:
[1] = system: experimental autoimmune encephalomyelitis (EAE); assay: Active EAE (MOG35-55/CFA) in C57BL/6 mice; type: in vivo, mouse
[2] = target: T1, RORγt binding to Il17a/f and Il23r loci (Mus musculus, UniProt P51450); assay: Chromatin immunoprecipitation of RORγt at target loci in Th17-polarized cells; type: cell-based; settings: 10 and 20 μM, ChIP
T1 construct: endogenous in cells; host or cells: mouse Th17-polarized CD4+ T cells

human memory Th17 cells = settings: 40 μM, 6 days
Procedure: Mononuclear cells were collected from draining lymph nodes of wild-type or IL-23RGFP knock-in heterozygous mice 7 days after MOG(35-55)/CFA injection.
Blood samples were obtained from the New York Blood Center. Mononuclear cells were prepared from buffy coats from healthy adult donors or from cord blood, using FicollPAQUE gradients. CD4^+ T cells were magnetically selected (autoMACS, Miltenyi). Adult memory CD4^+ T cell subsets were further purified as CD3^+CD4^+CD25^− CD45RO^+CCR6^+CD161^+ by cell sorting on a FACSAria (BD). Naive CD4^+ T cells were isolated from cord blood as CD3^+CD4^+CD45RA^+HLA-DR^−CD25^−DAPI^−. Memory cells were activated with anti-CD3/CD28 coated beads (1 bead/cell) in T cell media (see above) supplemented with 100 U/mL IL-2 (Peprotech), 10 ng/mL IL-1b and 10 ng/mL IL-23 (eBioscience). Naive cells were activated with anti-CD3/CD28 beads and cultured with the same cytokines, and TGF-b (0, 0.1, 1, or, 10 ng/mL) (Peprotech), in XVIVO-20 (Lonza) media. […] Naive CD4^+ T cells, cultured in XVIVO-20 media supplemented 100 U/mL IL-2 (Peprotech), were transduced with RORad-IRES-GFP or RORγt-IRES-GFP on day 1 and analyzed on day 6. […]
Blood samples were obtained from the New York Blood Center. […] Naive CD4+ T cells, cultured in XVIVO-20 media supplemented with 100 U/mL IL-2 (Peprotech), were transduced with RORαd-IRES-GFP or RORγt-IRES-GFP on day 1 and analyzed on day 6. […]

T1 sequence (P51450 1-495 isoform P51450-2): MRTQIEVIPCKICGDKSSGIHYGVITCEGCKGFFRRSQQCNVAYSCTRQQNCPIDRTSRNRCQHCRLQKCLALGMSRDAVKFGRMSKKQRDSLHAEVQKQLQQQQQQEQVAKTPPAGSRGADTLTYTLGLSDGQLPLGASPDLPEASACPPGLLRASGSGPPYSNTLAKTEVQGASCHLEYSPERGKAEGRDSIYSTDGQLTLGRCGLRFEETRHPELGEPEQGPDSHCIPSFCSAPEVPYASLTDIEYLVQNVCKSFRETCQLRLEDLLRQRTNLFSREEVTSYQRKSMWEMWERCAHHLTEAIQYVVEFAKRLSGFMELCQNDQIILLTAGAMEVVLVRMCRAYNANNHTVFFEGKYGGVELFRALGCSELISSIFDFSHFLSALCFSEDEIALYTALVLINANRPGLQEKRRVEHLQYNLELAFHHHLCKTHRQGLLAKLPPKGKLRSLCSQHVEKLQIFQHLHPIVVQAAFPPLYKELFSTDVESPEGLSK

SMILES | EAE onset and severity of progression ([1]; IP daily from day 2) | percentage of IFN-γ-producing Th1 cells infiltrating the spinal cord ([1]; compared to DMSO-treated mice) | reduction of percentage of IL-17-producing T cells infiltrating the spinal cord ([1]; compared to DMSO-treated mice, day 21) | total number of mononuclear cells infiltrating the spinal cord ([1]; mouse, in vivo) | RORγt binding to sites in Il17a/f and Il23r [2] | IFN-γ-expressing cells (human memory Th17 cells) | reduction of IL-17a-expressing cells (human memory Th17 cells)
C[C@H]1O[C@@H](O[C@H]2[C@@H](O)C[C@H](O[C@H]3[C@@H](O)C[C@H](O[C@H]4CC[C@@]5(C)[C@H](CC[C@@H]6[C@@H]5C[C@@H](O)[C@]5(C)[C@@H](C7=CC(=O)OC7)CC[C@]65O)C4)O[C@@H]3C)O[C@@H]2C)C[C@H](O)[C@@H]1O [Digoxin] | not only delayed onset, but also reduced severity | approximately the same | more than 50% | markedly reduced | substantially reduced | – | –
CC1O[C@@H](OC2C(C)O[C@H](OC3C(C)O[C@@H](O[C@H]4CC[C@@]5(C)[C@H](CC[C@@H]6[C@@H]5C[C@@H](O)[C@]5(C)[C@@H](C(CO)CCO)CC[C@]65O)C4)C[C@H]3O)C[C@H]2O)C[C@@H](O)C1O (stereo partly shown) [Compound 13, 20,22-Dihydrodigoxin-21,23-diol] | – | – | – | – | – | little effect | 40-50%
